Results as given in patent US5462935A, “Cephalosporin compounds” (Lucky Limited, priority 1990, dated 1995).
Converted amounts (≈) assume the structure as drawn.

Columns and labels:
[1] = test system: Proteus mirabilis ATCC 25933; experiment: minimal inhibitory concentration, two-fold agar dilution; format: cell-based; conditions: ATCC25933, Muller-Hinton agar, 37° C., 20 hours
Experimental: (§1) These NIC values were taken by employing a two-fold dilution method: that is, two-fold serial dilutions of each of the test compounds were made and dispersed in a Muller-Hinton agar medium; 2 μl of the standard test strain which had the 10^7 CFU (Colony Forming Unit) per ml was inoculated on the medium; and these were incubated at 37° C. for 20 hours.

ATCC 12228 = experiment: as above; format: cell-based; conditions: Staphylococcus faecalis, ATCC12228, 20 h
Experimental: as §1

[2] = test system: Proteus vulgaris ATCC 6059; experiment: as above; format: cell-based; conditions: ATCC6059, Muller-Hinton agar, 37° C., 20 hours
Experimental: as §1

[3] = test system: Bacillus megaterium ATCC 9885; experiment: as above; format: cell-based; conditions: Priestia megaterium, ATCC9885, 20 h
Experimental: as §1

[4] = test system: Shigella flexneri ATCC 11836; experiment: as above; format: cell-based; conditions: ATCC11836, Muller-Hinton agar, 37° C., 20 hours
Experimental: as §1

[5] = test system: Enterobacter cloacae ATCC 27508; experiment: as above; format: cell-based; conditions: ATCC27508, Muller-Hinton agar, 37° C., 20 hours
Experimental: as §1

[6] = test system: Staphylococcus epidermidis ATCC 10537; experiment: as above; format: cell-based; conditions: ATCC10537, Muller-Hinton agar, 37° C., 20 hours
Experimental: as §1

[7] = test system: Escherichia coli ATCC 25922; experiment: as above; format: cell-based; conditions: ATCC25922, Muller-Hinton agar, 37° C., 20 hours
Experimental: as §1

[8] = test system: Pseudomonas aeruginosa ATCC 25619; experiment: as above; format: cell-based; conditions: ATCC25619, Muller-Hinton agar, 37° C., 20 hours
Experimental: as §1

[9] = test system: Escherichia coli ATCC 10536; experiment: as above; format: cell-based; conditions: ATCC10536, Muller-Hinton agar, 37° C., 20 hours
Experimental: as §1

[10] = test system: Providencia rettgeri ATCC 9250; experiment: as above; format: cell-based; conditions: ATCC9250, Muller-Hinton agar, 37° C., 20 hours
Experimental: as §1

[11] = test system: Pseudomonas aerugionsa ATCC 10145; experiment: as above; format: cell-based; conditions: ATCC10145, Muller-Hinton agar, 37° C., 20 hours
Experimental: as §1

[12] = test system: Shigella sonnei ATCC 11060; experiment: as above; format: cell-based; conditions: ATCC11060, Muller-Hinton agar, 37° C., 20 hours
Experimental: as §1

[13] = test system: Morganella morganii ATCC 8076h; experiment: as above; format: cell-based; conditions: ATCC8076H, 20 h
Experimental: as §1

[14] = test system: Pseudomonas aerugionsa ATCC 27853; experiment: as above; format: cell-based; conditions: ATCC27853, Muller-Hinton agar, 37° C., 20 hours
Experimental: as §1

[15] = test system: Serratia marcescens ATCC 27117; experiment: as above; format: cell-based; conditions: ATCC27117, Muller-Hinton agar, 37° C., 20 hours
Experimental: as §1

[16] = test system: Klebsiella pneumoniae ATCC 10031; experiment: as above; format: cell-based; conditions: ATCC10031, Muller-Hinton agar, 37° C., 20 hours
Experimental: as §1

[17] = test system: Staphylococcus aureus ATCC 6638p; experiment: as above; format: cell-based; conditions: ATCC6638P, 20 h
Experimental: as §1

[18] = test system: Streptococcus faecalis ATCC 29212; experiment: as above; format: cell-based; conditions: Enterococcus faecalis, ATCC29212, Muller-Hinton agar, 37° C., 20 hours
Experimental: as §1

[19] = test system: Micrococcus luteus ATCC 9341; experiment: as above; format: cell-based; conditions: ATCC9341, Muller-Hinton agar, 37° C., 20 hours
Experimental: as §1

[20] = test system: Citrobacter freundii ATCC 8090; experiment: as above; format: cell-based; conditions: ATCC8090, Muller-Hinton agar, 37° C., 20 hours
Experimental: as §1

[21] = test system: Salmonella typhimurium ATCC 14028; experiment: as above; format: cell-based; conditions: Salmonella enterica, Muller-Hinton agar, 37° C., 20 hours
Experimental: as §1

[22] = test system: Enterobacter aerogenes ATCC 29751; experiment: as above; format: cell-based; conditions: Klebsiella aerogenes, ATCC29751, 20 h
Experimental: as §1

[23] = test system: Acinetobacter calcoaceticus ATCC 15473; experiment: as above; format: cell-based; conditions: ATCC15473, Muller-Hinton agar, 37° C., 20 hours
Experimental: as §1

[24] = test system: Bacillus cereus ATCC 11778; experiment: as above; format: cell-based; conditions: Bacillus cereus, ATCC11778, 20 h
Experimental: as §1

[25] = acute toxicity test, intravenous; conditions: mouse, in vivo, ICR mice, observed for 14 days
Description: The results are shown in the last row of Table 2.

Compound: CCC[n+]1c(N)cc(N)nc1SCC1=C(C(=O)[O-])N2C(=O)C(NC(=O)/C(=N\O[C@H](C)C(=O)O)c3csc(N)n3)[C@H]2SC1 (stereo partly drawn) [I-R-4, 7-[(Z)-2-(2-aminothiazol-4-yl)-2-[(R)-1-carboxyeth-1-oxyimino]acetamido]-3-[(4,6-diamino-1-propylpyrimidinium-2-yl)thiomethyl]-3-cephem-4-carboxylate]
- MIC [1]: 0.063 µg/mL (≈ 0.0988 µM)
- MIC (ATCC 12228): 1 µg/mL (≈ 1.57 µM)
- MIC [2]: 0.063 µg/mL (≈ 0.0988 µM)
- MIC [3]: 0.5 µg/mL (≈ 0.784 µM)
- MIC [4]: 0.031 µg/mL (≈ 0.0486 µM)
- MIC [5]: 0.016 µg/mL (≈ 0.0251 µM)
- MIC [6]: 2 µg/mL (≈ 3.14 µM)
- MIC [7]: 0.063 µg/mL (≈ 0.0988 µM)
- MIC [8]: 1 µg/mL (≈ 1.57 µM)
- MIC [9]: 0.063 µg/mL (≈ 0.0988 µM)
- MIC [10]: ≤ 0.008 µg/mL
- MIC [11]: 4 µg/mL (≈ 6.27 µM)
- MIC [12]: 0.063 µg/mL (≈ 0.0988 µM)
- MIC [13]: ≤ 0.008 µg/mL
- MIC [14]: 2 µg/mL (≈ 3.14 µM)
- MIC [15]: 0.13 µg/mL (≈ 0.204 µM)
- MIC [16]: 0.063 µg/mL (≈ 0.0988 µM)
- MIC [17]: 2 µg/mL (≈ 3.14 µM)
- MIC [18]: > 128 µg/mL
- MIC [19]: 0.5 µg/mL (≈ 0.784 µM)
- MIC [20]: 0.063 µg/mL (≈ 0.0988 µM)
- MIC [21]: 0.25 µg/mL (≈ 0.392 µM)
- MIC [22]: 1 µg/mL (≈ 1.57 µM)
- MIC [23]: 8 µg/mL (≈ 12.5 µM)
- MIC [24]: 64 µg/mL (≈ 100 µM)
- LD50 at 336 h [25]: > 3000 mg/kg

Compound: C[C@@H](O/N=C(\C(=O)NC1C(=O)N2C(C(=O)[O-])=C(CSc3nc(N)cc(N)[n+]3-c3ccccc3)CSC12)c1csc(N)n1)C(=O)O (stereo partly drawn) [I-R-5, 7-[(Z)-2-(2-aminothiazol-4-yl)-2-[(R)-1-carboxyeth-1-oxyimino]acetamido]-3-[(4,6-diamino-1'-phenylpyrimidinium-2-yl)thiomethyl]-3-cephem-4-carboxylate]
- MIC [1]: 0.063 µg/mL (≈ 0.0938 µM)
- MIC (ATCC 12228): 2 µg/mL (≈ 2.98 µM)
- MIC [2]: 0.063 µg/mL (≈ 0.0938 µM)
- MIC [3]: 0.5 µg/mL (≈ 0.744 µM)
- MIC [4]: 0.063 µg/mL (≈ 0.0938 µM)
- MIC [5]: 0.031 µg/mL (≈ 0.0461 µM)
- MIC [6]: 2 µg/mL (≈ 2.98 µM)
- MIC [7]: 0.25 µg/mL (≈ 0.372 µM)
- MIC [8]: 2 µg/mL (≈ 2.98 µM)
- MIC [9]: 0.13 µg/mL (≈ 0.194 µM)
- MIC [10]: ≤ 0.008 µg/mL
- MIC [11]: 8 µg/mL (≈ 11.9 µM)
- MIC [12]: 0.25 µg/mL (≈ 0.372 µM)
- MIC [13]: ≤ 0.008 µg/mL
- MIC [14]: 4 µg/mL (≈ 5.95 µM)
- MIC [15]: 0.5 µg/mL (≈ 0.744 µM)
- MIC [16]: 0.063 µg/mL (≈ 0.0938 µM)
- MIC [17]: 4 µg/mL (≈ 5.95 µM)
- MIC [18]: > 128 µg/mL
- MIC [19]: 0.25 µg/mL (≈ 0.372 µM)
- MIC [20]: 0.13 µg/mL (≈ 0.194 µM)
- MIC [21]: 0.5 µg/mL (≈ 0.744 µM)
- MIC [22]: 1 µg/mL (≈ 1.49 µM)
- MIC [23]: 16 µg/mL (≈ 23.8 µM)
- MIC [24]: 64 µg/mL (≈ 95.3 µM)
- LD50 at 336 h [25]: > 2000 mg/kg

Compound: Cc1c(N)nc(SCC2=C(C(=O)[O-])N3C(=O)C(NC(=O)/C(=N\O[C@H](C)C(=O)O)c4csc(N)n4)[C@H]3SC2)[n+](N)c1N (stereo partly drawn) [I-R-7, 7-[(Z)-2-(2-aminothiazol-4-yl)-2-[(R)-1-carboxyeth-1-oxyimino]acetamido]-3-[(5-methyl-1,4,6-triaminopyrimidinium-2-yl)thiomethyl]-3-cephem-4-carboxylate]
- MIC [1]: 0.031 µg/mL (≈ 0.0496 µM)
- MIC (ATCC 12228): 2 µg/mL (≈ 3.2 µM)
- MIC [2]: 0.063 µg/mL (≈ 0.101 µM)
- MIC [3]: 0.5 µg/mL (≈ 0.8 µM)
- MIC [4]: 0.031 µg/mL (≈ 0.0496 µM)
- MIC [5]: 0.063 µg/mL (≈ 0.101 µM)
- MIC [6]: 2 µg/mL (≈ 3.2 µM)
- MIC [7]: 0.063 µg/mL (≈ 0.101 µM)
- MIC [8]: 2 µg/mL (≈ 3.2 µM)
- MIC [9]: 0.063 µg/mL (≈ 0.101 µM)
- MIC [10]: ≤ 0.008 µg/mL
- MIC [11]: 2 µg/mL (≈ 3.2 µM)
- MIC [12]: 0.063 µg/mL (≈ 0.101 µM)
- MIC [13]: ≤ 0.008 µg/mL
- MIC [14]: 2 µg/mL (≈ 3.2 µM)
- MIC [15]: 0.13 µg/mL (≈ 0.208 µM)
- MIC [16]: 0.063 µg/mL (≈ 0.101 µM)
- MIC [17]: 4 µg/mL (≈ 6.4 µM)
- MIC [18]: > 128 µg/mL
- MIC [19]: 0.5 µg/mL (≈ 0.8 µM)
- MIC [20]: 0.13 µg/mL (≈ 0.208 µM)
- MIC [21]: 0.25 µg/mL (≈ 0.4 µM)
- MIC [22]: 2 µg/mL (≈ 3.2 µM)
- MIC [23]: 4 µg/mL (≈ 6.4 µM)
- MIC [24]: 128 µg/mL (≈ 205 µM)
- LD50 at 336 h [25]: > 5000 mg/kg
